Source: publication PMC8131842, “Therapeutic Potential of Vasoactive Intestinal Peptide and its Derivative Stearyl-Norleucine-VIP in Inflammation-Induced Osteolysis” (Frontiers in Pharmacology, 2021)

How the values were obtained:
Guinea pigs = test: Study 003 skin sensitization: adjuvant and patch test; assay type: in vivo, guinea pig; conditions: daily applications for 3 days, SNV 7 mg/animal (1000X)
Experimental: Toxicology. We performed toxicology studies for SNV that consisted of acute subcutaneous, intravenous and oral toxicity in rats, acute dermal toxicity in rabbits, skin sensitization using adjuvant and patch test in guinea pigs, and single and repeated (for 13 weeks) dose toxicity studies in rats. The latter was a 90-days repeated dose toxicity study, consisting of SNV once a day at three different doses to the penis and vagina of male and female rats, respectively. The compound was tested for the treatment of erectile dysfunction. The active dose (7 µg SNV) was chosen as the lowest dose for the study. The highest dosage group in the repeated dose toxicity study received 3,500 µg ([Gozes et al., 1994]). For study 001 (parts 1 through 3), the 1× dose consisted of 0.5 mg SNV dissolved in 7.1 ml vehicle (3.55 ml 10% Sefsol [glycerin monocaprylate] + 3.55 ml isopropanol) and 100µl/animal were administered; the 1000X dose consisted of 91 mg SNV dissolved in 1.3 ml vehicle (0.65 ml 10% Sefsol +0.65 ml isopropanol) and 100µl/animal were administered. For studies 002 through 004, the indicated doses of SNV (Table 1) were dissolved in 0.25 ml 10% Sefsol +0.25 ml 40% isopropanol (vehicle). The methodology for each of the toxicology studies is detailed in Table 1.

[1] = test system: Primary murine macrophages/preosteoclasts; test: MTT viability assay; assay type: cell-based, mouse; conditions: 10^-6 M, 20 ng/ml M-CSF, 1, 3 and 5 days of treatment, N=5
Experimental: MTT assay. For proliferation assay, macrophages were plated (4000 cells/well) into 96-well plate with standard medium supplemented with 20 ng of M-CSF. Cells were treated as indicated with either TiP, SNV, VIP (10^−6 M) or vehicle at first day of incubation. Cells viability was determined using dimethylthiazol-diphenyl-tetrazolium-bromide (MTT) after 1, 3 or 5 days. MTT was added to a final concentration of 5 mg/ml and incubated for 4 h at 37°C. After complete solubilization of the die in DMSO, plates were read at 570 nm in a colorimetric plate reader.
FIGURE 4 VIP and SNV alleviate the osteoclastogenic effect of TiP-induced inflammation. (A) Primary BMDM were exposed to TiP and RNA was collected after 24 h. mRNA expression are presented as Mean±SD fold change versus Control. * p<0.05 vs. Control. (B-D) Primary murine preosteoclasts were cultured in 20 ng/ml M-CSF and 50 ng/ml RANKL for 48 h. Conditioned medium from macrophages (Control) and macrophages exposed to Ti particles (Ti, as in A) was then added together with 10^-6M of VIP or SNV (or saline) for 48 h before TRAP staining. Data are Mean±SD for osteoclast % surface area (B) and number per well (C). (D) Representative images all acquired at a 4x original magnification. The scale bar for all images is in the upper left panel. n=8, #p<0.05 vs. Control; *p<0.05 vs. Ti, ANOVA. […]

[2] = matrix not given, ref Gozes et al., 1994, 1996; cited from earlier work
From the text: VIP derivatives and conjugates were designed to include a lipophilic moiety or a shortened VIP chain ([Gozes and Fridkin, 1992]; [Gozes et al., 1994]; [Gozes et al., 1995]; [Gozes et al., 1996]; [Gozes et al., 1999]). Stearyl-norleucine-VIP (Stearyl-Nle^17VIP, SNV) is a lipophilic compound consisting of a VIP molecule with an N-terminal attachment of stearic acid to increase cell and tissue bioavailability and an exchange of the oxidation-vulnerable methionine at position 17 with the stable norleucine.

## O=[N+]([O-])c1ccc(Cl)c([N+](=O)[O-])c1 [1%-chloro-2,4-dinitrobenzene, reference compound]
Guinea pigs; adjuvant and patch test
  Mortality: None
Guinea pigs; intradermal Freund's complete adjuvant and patch application, 3 males + 3 females per group
  Skin reactions: severe erythema, edema and necrosis

## CC[C@H](C)[C@H](NC(=O)[C@H](CO)NC(=O)[C@H](CC(N)=O)NC(=O)[C@H](CC(C)C)NC(=O)[C@H](Cc1ccc(O)cc1)NC(=O)[C@H](CCCCN)NC(=O)[C@H](CCCCN)NC(=O)[C@@H](NC(=O)[C@H](C)NC(=O)[C@H](CCSC)NC(=O)[C@H](CCC(N)=O)NC(=O)[C@H](CCCCN)NC(=O)[C@H](CCCN=C(N)N)NC(=O)[C@H](CC(C)C)NC(=O)[C@H](CCCN=C(N)N)NC(=O)[C@@H](NC(=O)[C@H](Cc1ccc(O)cc1)NC(=O)[C@H](CC(N)=O)NC(=O)[C@H](CC(=O)O)NC(=O)[C@@H](NC(=O)[C@H](Cc1ccccc1)NC(=O)[C@@H](NC(=O)[C@H](C)NC(=O)[C@H](CC(=O)O)NC(=O)[C@H](CO)NC(=O)[C@@H](N)Cc1c[nH]cn1)C(C)C)[C@@H](C)O)[C@@H](C)O)C(C)C)C(=O)N[C@@H](CC(C)C)C(=O)N[C@@H](CC(N)=O)C(N)=O [VIP, Vasoactive intestinal peptide]
[1]
  Viability of the cells (MTT, optical density): neither VIP nor SNV affected the viability
[2]
  Half-life: ~30 s
